Tested on: HIV-I
Experiment: Experiment la(a): macrophage cells, HIV-I, p24 antigen capture radio-immunoassay
Format: cell-based
Settings: for TITER: control titer 100000; for wells positive for HIV-I p24, LOG VIRUS DILUTION -1 / wells positive for HIV-I p24, LOG VIRUS DILUTION -2 / wells positive for HIV-I p24, LOG VIRUS DILUTION -3 / wells positive for HIV-I p24, LOG VIRUS DILUTION -4 / wells positive for HIV-I p24, LOG VIRUS DILUTION -5 / wells positive for HIV-I p24, LOG VIRUS DILUTION -6: duplicate runs
Protocol: Fresh macrophage cultures were obtained by incubation of mononuclear cells obtained from a leukopak directly in the wells of a microtiter plate having 6 wells per row. After removal of non-adherent cells, each row of the adherent macrophages was infected with 10-fold serial dilutions of HIV-I, with the use of polybrene to enhance uptake of the virus. After one to two hours, the virus inoculum was removed and replaced with fresh normal growth medium. The fresh medium for each row contained a particular concentration of AZT, dideoxy cytidine (ddC), or compound la, as indicated by the left-hand column of Table la(a). The first row of wells acted as a control, and to it was added fresh medium containing none of the three drugs. Medium levels were maintained for two to four weeks to allow replication of the virus to take place, with at least one complete fluid change to remove residual virus inoculum. The contents of each well were then tested for the level of HIV p24 antigen present using a commercially available antigen capture kit employing a radio-immunoassay which can detect as little as 10'^9gm of p24 present in a sample. The above procedure was done in duplicate runs.
The results were interpreted as follows: 2/2, for example, means that both the corresponding wells of both runs were positive for HIV-I p24, while 0/2 means that neither well was positive. The titers are given in the next to last column; where 1/2 wells was positive, an intermediate value was given to the titer that is half way between the two dilutions when calculated on a logarithmic scale. 3 µM IPA was positive in both wells at a dilution of 1/10,000 and in neither well at 1/100,000. Thus, one half log interval between 10^4 and 10^5 is 10^4.5, or 30,000.

CC(C)=CCNc1ncnc2c1ncn2[C@@H]1O[C@H](CO)[C@@H](O)[C@H]1O [IPA, N^6-(Δ^2-isopentenyl) adenosine]
activity at 3 µM (Human immunodeficiency virus 1, Macrophage, drug 3 μM, titer relative to control, read-out: PERCENT OF CONTROL): 30%
activity at 10 µM (Human immunodeficiency virus 1, Macrophage, drug 10 μM, titer relative to control, read-out: PERCENT OF CONTROL): 10%
activity at 30 µM (Human immunodeficiency virus 1, Macrophage, drug 30 μM, titer relative to control, read-out: PERCENT OF CONTROL): 1%
activity at 100 µM (Human immunodeficiency virus 1, Macrophage, drug 100 μM, titer relative to control, read-out: PERCENT OF CONTROL): 0.3%
activity at 300 µM (Human immunodeficiency virus 1, Macrophage, drug 300 μM, titer relative to control, read-out: PERCENT OF CONTROL): 0%
activity at 1000 µM (Human immunodeficiency virus 1, Macrophage, drug 1000 μM, titer relative to control, read-out: PERCENT OF CONTROL): 0%
TITER (drug 3 μM): 30000
wells positive for HIV-I p24, LOG VIRUS DILUTION -1 (drug 3 μM): 2/2
wells positive for HIV-I p24, LOG VIRUS DILUTION -2 (drug 3 μM): 2/2
wells positive for HIV-I p24, LOG VIRUS DILUTION -3 (drug 3 μM): 2/2
wells positive for HIV-I p24, LOG VIRUS DILUTION -4 (drug 3 μM): 2/2
wells positive for HIV-I p24, LOG VIRUS DILUTION -5 (drug 3 μM): 0/2
wells positive for HIV-I p24, LOG VIRUS DILUTION -6 (drug 3 μM): 0/2
TITER (drug 10 μM): 10000
wells positive for HIV-I p24, LOG VIRUS DILUTION -1 (drug 10 μM): 2/2
wells positive for HIV-I p24, LOG VIRUS DILUTION -2 (drug 10 μM): 2/2
wells positive for HIV-I p24, LOG VIRUS DILUTION -3 (drug 10 μM): 2/2
wells positive for HIV-I p24, LOG VIRUS DILUTION -4 (drug 10 μM): 1/2
wells positive for HIV-I p24, LOG VIRUS DILUTION -5 (drug 10 μM): 0/2
wells positive for HIV-I p24, LOG VIRUS DILUTION -6 (drug 10 μM): 0/2
TITER (drug 30 μM): 1000
wells positive for HIV-I p24, LOG VIRUS DILUTION -1 (drug 30 μM): 2/2
wells positive for HIV-I p24, LOG VIRUS DILUTION -2 (drug 30 μM): 2/2
wells positive for HIV-I p24, LOG VIRUS DILUTION -3 (drug 30 μM): 1/2
wells positive for HIV-I p24, LOG VIRUS DILUTION -4 (drug 30 μM): 0/2
wells positive for HIV-I p24, LOG VIRUS DILUTION -5 (drug 30 μM): 0/2
wells positive for HIV-I p24, LOG VIRUS DILUTION -6 (drug 30 μM): 0/2
TITER (drug 100 μM): 300
wells positive for HIV-I p24, LOG VIRUS DILUTION -1 (drug 100 μM): 2/2
wells positive for HIV-I p24, LOG VIRUS DILUTION -2 (drug 100 μM): 2/2
wells positive for HIV-I p24, LOG VIRUS DILUTION -3 (drug 100 μM): 0/2
wells positive for HIV-I p24, LOG VIRUS DILUTION -4 (drug 100 μM): 0/2
wells positive for HIV-I p24, LOG VIRUS DILUTION -5 (drug 100 μM): 0/2
wells positive for HIV-I p24, LOG VIRUS DILUTION -6 (drug 100 μM): 0/2
TITER (drug 300 μM): 10
wells positive for HIV-I p24, LOG VIRUS DILUTION -1 (drug 300 μM): 0/2
wells positive for HIV-I p24, LOG VIRUS DILUTION -2 (drug 300 μM): 0/2
wells positive for HIV-I p24, LOG VIRUS DILUTION -3 (drug 300 μM): 0/2
wells positive for HIV-I p24, LOG VIRUS DILUTION -4 (drug 300 μM): 0/2
wells positive for HIV-I p24, LOG VIRUS DILUTION -5 (drug 300 μM): 0/2
wells positive for HIV-I p24, LOG VIRUS DILUTION -6 (drug 300 μM): 0/2
TITER (drug 1000 μM): 10
wells positive for HIV-I p24, LOG VIRUS DILUTION -1 (drug 1000 μM): 0/2
wells positive for HIV-I p24, LOG VIRUS DILUTION -2 (drug 1000 μM): 0/2
wells positive for HIV-I p24, LOG VIRUS DILUTION -3 (drug 1000 μM): 0/2
wells positive for HIV-I p24, LOG VIRUS DILUTION -4 (drug 1000 μM): 0/2
wells positive for HIV-I p24, LOG VIRUS DILUTION -5 (drug 1000 μM): 0/2
wells positive for HIV-I p24, LOG VIRUS DILUTION -6 (drug 1000 μM): 0/2

Reference: patent EP0462621A2, “Use of particular compounds for manufacture of pharmaceutical formulations for treatment against various parasites, mycoplasmas, other indications and other infections” (Prendergast, Patrick Thomas, priority 1990, dated 1991)
